The test system of assay [1] is HAE cultures. The assay can be described thus: Infection of HAE cultures by rgRSV produced in the presence of cathepsin L inhibitor. The class given is cell-based, human. As to the method:
(§1) At 72 hpi the medium was collected and virus pelleted through a 35% sucrose cushion to partially purify and concentrate it. The virus pellet was resuspended and half was further purified by linear sucrose density gradient. The G protein from these purified virions was analyzed by immunoblot. The G protein from HeLa cell virions migrated at 90 kDa and was not affected by the inhibitor (FIG. 5A). […] FIG. 5A was generated by inoculating HeLa or Vero cells for 2 h and treating them with cathepsin L inhibitor or DMSO beginning at 8 hpi.
The remaining virus that had been partially purified through the 35% sucrose cushion was titrated on HeLa cells. Equivalent amounts of infectious virus, determined on HeLa cells, were used to inoculate HAE cultures. […] For FIG. 5B, equivalent amount of infectious virus, determined by titration on HeLa cells, was used to inoculate HAE cultures. 48 hpi green cells were counted. *p<0.0001 (unpaired, 2-tailed t-test).
Primary, well-differentiated human airway epithelial (HAE) cultures were generated from human airway tissue (Fulcher et al., Methods Mol Med (2005) 107:183-206). For infection experiments they were grown on collagen coated Trans-well inserts (Corning Incorporated). […]
The effect of protease inhibitors on the infectivity of RSV produced by Vero and HeLa cells was tested by inoculating cells and 2 hpi media was changed. […] Fractions containing virus were separated by SDS-PAGE and G protein detected by immunoblot using a mAb, L9 (Edward Walsh, University of Rochester).
The apical surface of well-differentiated HAE cultures in Trans-wells was washed with DPBS for 2 h and the basal medium changed before equivalent pfu (titrated in HeLa cells), between 2,000 and 10,000 pfu, depending on the HAE culture source, were diluted in HAE medium and added to the apical chamber of the Trans-well. […] Fluorescent (green) cells were visualized with an EVOS fl inverted fluorescence microscope (Life Technologies) and counted in HeLa cultures at 24 hpi and on HAE cultures at 48 hpi. Three or more experiments were pooled and analyzed together.

Assay [2] deals with RSV G protein cleavage in Vero cells. The assay can be described thus: Cell-surface RSV G protein cleavage in rgRSV-infected cells treated with protease inhibitors (biotinylation, immunoblot with mAb L9). The class given is cell-based. To be noted: RSV-infected HeLa and Vero cells; 0.1 to 100 μM at 6 hpi; 24 hpi. The procedure:
To elucidate the class of protease responsible for G protein cleavage in Vero cells, cells were treated with increasing concentrations of protease inhibitors after inoculating with recombinant green fluorescent protein expressing RSV (rgRSV). Cells were incubated with rgRSV for 2 h with tipping at 37° C. before replacing inoculum with fresh cell culture medium. Drugs were added at different times post infection. In each case, uninfected, no drug, and vehicle (at the highest concentration used) were included in all experiments as controls. In all experiments at 24 hpi, cell surface proteins were biotinylated, cells lysed and equivalent amounts of protein from each sample were mixed with streptavidin beads.
Aprotinin, a serine protease inhibitor, leupeptin, a serine/cysteine protease inhibitor; or E-64, a cysteine protease inhibitor were added to the cell culture media (3.125 to 50 μg/ml) from 2-24 hpi. The most likely proteins to be incorporated into the virions are cell surface proteins, so the cell surfaced was biotinylated, proteins isolated from lysed cells with streptavidin beads, and immunobloted with L9, a mAb to the G protein, as a probe (FIG. 1A). In the untreated and vehicle treated samples most of the cell surface G protein was cleaved (˜55 kDa), leaving only a small portion of full length (˜90 kDa) G protein. […] Since both leupeptin and E64 block the activity of cysteine proteases, the protease responsible for cleavage of the G protein in Vero cells is a cysteine protease.
To narrow the field of cysteine proteases, cells were treated at 6 hpi with a more specific cysteine protease inhibitor, ALLM (0.1 to 100 μM).
RSV-infected HeLa and Vero cells were treated with a cathepsin B inhibitor, CA-074 (0.1 to 100 μM), or a cathepsin L inhibitor, cathepsin L inhibitor III (0.1 to 100 μM) 6 hpi.
Cathepsin L is a protease present primarily in the interior of the lysosome and is optimally active at acidic pH. Vero cells expressing the G protein were treated with chloroquine to raise the pH of the lysosome. […] To generate FIG. 4C, cells were inoculated with RSV or mock inoculated. 6 hpi the cells were treated with increasing concentrations of chloroquine. 24 hpi cells were biotinylated and G protein assayed
HeLa and Vero cells were rgRSV (MOI: 1) or mock inoculated. 2 hpi the inoculum was replaced with fresh complete medium, and 4 hpi cells the medium was changed again to complete medium with 2-fold dilutions of these protease inhibitors (Sigma-Aldrich, St. Louis, Mo.), dissolved in water: Aprotinin (3.125 to 50 μg/ml); Leupeptin (6.25 to 100 μg/ml); E-64 (6.25 to 100 μg/ml); or equal volumes of water in medium. In other experiments, cells were treated at 6 hpi with: 10-fold dilutions (0.1 to 100 μM) of: Cathepsin inhibitor I (Calbiochem); ALLM (Santa Cruz, Dallas, Tex.); Chloroquine diphosphate salt (Sigma Aldrich) or equivalent volumes of vehicle (water); CA-074 (Calbiochem); Cathepsin L inhibitor III (Calbiochem); or an equal volume of vehicle (DMSO) in medium.
At 24 hpi cells were biotinylated with Ez-link Sulfo-NHS-LC-Biotin (Thermo Fisher). Cells were lysed with lysis buffer containing 150 mM NaCl, 1% Triton X-100, 50 mM Tris, 0.1% SDS, and 1× Halt protease cocktail inhibitor (Thermo Fisher). Proteins were quantified using BCA protein assay kit (Pierce, Waltham, Mass.), and equal amounts of protein were added to high capacity streptavidin agarose beads (Thermo Fisher). The mixtures were rotated for 1 h at 4° C., the beads were pelleted and washed with lysis buffer (without protease cocktail inhibitor), NuPage LDS sample buffer was added, and boiled for 5 min, separated by NuPAGE Novex 4-12% bis-tris protein gels and transferred to nitrocellulose in an iBlot transfer stack, using the iBlot transferring system (Life Technologies) for immunoblot analysis. […]

Assay [3] relates to G protein from HeLa cell virions. The experiment in a line: Virion-associated G protein of rgRSV grown in HeLa cells with cathepsin L inhibitor (immunoblot). To be noted: inhibitor beginning at 8 hpi; virus collected 72 hpi; G migrated at 90 kDa. The class given is cell-based. The procedure: as §1
The effect of protease inhibitors on the infectivity of RSV produced by Vero and HeLa cells was tested by inoculating cells and 2 hpi media was changed. At 7 hpi medium containing […] cathepsin L inhibitor III (Calbiochem, San Diego, Calif.) or an equal volume of the vehicle, DMSO was added to the cells. 72 hpi virus was harvested as described above, but instead of aliquoting and snap freezing, 15 ml of virus-containing medium was layered on top of 15 ml of 35% sucrose cushion in 1× Hanks Balanced Salt Solution, with calcium and magnesium, and centrifuged overnight at 4° C. and 26,000×g in an F14-14×50cy rotor for Sorvall Lynx 6000 (Thermo Fisher) to remove the drug and partially purify the virus. […] Fractions containing virus were separated by SDS-PAGE and G protein detected by immunoblot using a mAb, L9 (Edward Walsh, University of Rochester).
On the technique in general: A western blot detects proteins with antibodies after separation by electrophoresis.

Assay [4] concerns G protein from Vero cell virions. The assay can be described thus: Virion-associated G protein of rgRSV grown in Vero cells with cathepsin L inhibitor (immunoblot). To be noted: for virion-associated G protein cleavage: rgRSV grown in Vero cells, 0.5 μM inhibitor at 7 hpi, harvested 72 hpi. The class given is cell-based. The procedure: To verify that cathepsin L is sufficient to cleave the G protein, rgRSV was grown in Vero cells in the presence of cathepsin L inhibitor or vehicle. Viruses were harvested and pelleted through a 35% sucrose cushion to separate them from cathepsin L inhibitor. Viruses were resuspended in buffer with pH5.5 and treated with cathepsin L or vehicle. […] Vero cells were inoculated with rgRSV or mock inoculated for 2 h, at which time the inoculum was replaced with fresh medium. Vero cells were treated with medium containing 0.5 μM cathepsin L inhibitor III at 7 hpi. 72 hpi the medium was harvested and virus was pelleted through a 35% sucrose cushion. The pelleted Vero-derived (VeD) virus was resuspended in buffer (pH5.5) containing 50 ng/d cathepsin L or vehicle.
as §1
The effect of protease inhibitors on the infectivity of RSV produced by Vero and HeLa cells was tested by inoculating cells and 2 hpi media was changed. At 7 hpi medium containing […] cathepsin L inhibitor III (Calbiochem, San Diego, Calif.) or an equal volume of the vehicle, DMSO was added to the cells. […] Fractions containing virus were separated by SDS-PAGE and G protein detected by immunoblot using a mAb, L9 (Edward Walsh, University of Rochester).

“Also recorded” adds a separate entry of the source. Where a SMILES comes first, the peptide text is derived from it. The star is where a group is joined. Cbz = O=C(OCc1ccccc1)*; CHN2 = [N-]=[N+]=C*; tBu = CC(C)(C)*

For `CC(C)(C)Oc1ccc(C[C@H](NC(=O)[C@H](Cc2ccccc2)NC(=O)OCc2ccccc2)C(=O)C=[N+]=[N-])cc1` [cathepsin L inhibitor III] (Cbz-Phe-Tyr(tBu)-CHN2), in assay [1] (inhibitor present during viral production), the “ability of Vero-derived virus to infect HAE cells” value is recorded as “increasing the ability of Vero-derived virus to infect HAE cells”. Further, in assay [1] (inhibitor present during virus production in HeLa, green cells counted 48 hpi), the “effect on ability of HeLa grown virus to infect HAE cultures” value is listed as “little, if any, effect”. Moreover, the “increase in ability of Vero-grown virus to infect HAE cells” value in assay [1] (inhibitor present during virus production in Vero, green cells counted 48 hpi, vs DMSO) is listed as 7 fold. The “G protein cleavage (cell surface G protein)” value in assay [2] is recorded as “prevention of cleavage; also recorded: almost completely prevented G protein cleavage”. Also, the “migration of G protein from HeLa cell virions” value in assay [3] is reported as “not affected”. For the same molecule, the “migration of G protein from Vero cell virions” value in assay [4] (inhibitor beginning at 8 hpi, virus collected 72 hpi, without inhibitor primarily 55 kDa) is “converted to 90 kDa”. The results for the “virion-associated G protein cleavage” value in assay [4] and in assay [4] (listed as cathepsin L inhibitor) were “cleavage is prevented” and “cleavage prevention”, respectively.

(Values after patent US10758607B2, “Respiratory syncytial virus having cleavage-resistant G protein and related materials and methods” (The Research Institute at Nationwide Children's Hospital, priority 2015, dated 2020).)
